Here are results for 25 molecules from US12448371B2, “Inhibitor compounds” (Cincera Therapeutics Pty Ltd, priority 2019, dated 2025).

The target in this assay is T1, Des1 (h) (Homo sapiens, UniProt O15121).
T1 construct: endogenous in cells; host or cells: parental Jurkat cells
T1 sequence (O15121 1-323): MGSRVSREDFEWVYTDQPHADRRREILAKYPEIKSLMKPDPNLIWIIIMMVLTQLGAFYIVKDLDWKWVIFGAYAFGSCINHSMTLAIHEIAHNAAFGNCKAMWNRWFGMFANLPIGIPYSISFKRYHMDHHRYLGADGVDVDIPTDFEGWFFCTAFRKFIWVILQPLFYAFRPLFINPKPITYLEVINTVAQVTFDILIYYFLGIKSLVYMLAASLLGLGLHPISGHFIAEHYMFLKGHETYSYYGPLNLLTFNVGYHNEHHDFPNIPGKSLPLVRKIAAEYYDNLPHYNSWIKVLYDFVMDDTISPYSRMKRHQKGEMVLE
The assay is described as follows: Measurement of Dihydroceramide Desaturase-1 (Des-1) activity in intact Jurkat cells labeled with DhCer-C6-NBD (HPLC). The format is cell-based. Particulars: for IC50: intact Jurkat cells, given as concentration range, or <X / >X if measured at one concentration X only, read-out: Des1 (h) Jurkat IC50. The procedure: Measurement of Dihydroceramide Desaturase-1 (Des-1) Activity
Compounds were assessed for Des-1 inhibitory activity. Measurement of Des1 activity was performed by HPLC using intact Jurkat cells labeled with DhCer-C6-NBD as described previously (Munoz-Olaya, J. M. et al. ChemMedChem 2008, 3, 946-953) with modifications to enhance sensitivity and reproducibility. These modifications included the use of parental Jurkat cells, 0.5% serum in the culture media, and cell harvesting via centrifugation at 500×g to maximise ceramide extraction. Extracted samples (50 ul) were analysed on a Waters HPLC coupled to a fluorescence detector using a 30 cm C18 reverse-phase column eluted with 1 ml/min 20% H2O and 80% acetonitrile, both with a 0.1% of trifluoroacetic acid. NBD-labelled substrate and product were quantitated with an excitation and emission wavelengths of 465 nm and 530 nm, respectively.

Counter-ions that a name gives are not always drawn. Bounds are passed on as bounds.

A word on the IC50: it is the concentration at which inhibition is half-maximal. As to `O=C(NCCO)c1ccc(Nc2ncc(-c3ccc(C(F)(F)F)cc3)o2)cn1` [Example 19, N-(2-Hydroxyethyl)-5-((5-(4-(trifluoromethyl)phenyl)oxazol-2-yl)amino)picolinamide], the IC50 was 1000 to 10000 nM. One may read the inhibition as how much of the control response was suppressed. Read a high inhibition as a strong effect. For `O=C(NCC(O)CO)c1ccc(Nc2cnn(-c3ccc(C(F)(F)F)cn3)c2)cn1` (racemic) [Compound 104, rac-N-(2,3-Dihydroxypropyl)-5-((1-(5-(trifluoromethyl)pyridin-2-yl)-1H-pyrazol-4-yl)amino)picolinamide], the IC50 was above 1000 nM. This molecule also displayed an inhibition at 1 µM (Jurkat cells) of 26%.

Consider `N/C(=N/O)c1ccc(Nc2ncc(-c3ccc(N4CC(F)(F)C4)cc3)o2)cn1` [Example 64, 5-((5-(4-(3,3-Difluoroazetidin-1-yl)phenyl)oxazol-2-yl)amino)-N′-hydroxypicolinimidamide], for which the concentration for half-maximal inhibition (IC50) is above 1000 nM. The molecule also showed an inhibition at 1 µM (Jurkat cells) of 23%. Turning to `NNC(=O)c1ccc(Nc2ncc(-c3ccc(C(F)(F)F)cc3)o2)cn1` [Compound 92, 5-((5-(4-(Trifluoromethyl)phenyl)oxazol-2-yl)amino)picolinohydrazide], the IC50 fell in the range of 100 to 1000 nM. Turning to `CC(C)N(O)C(=O)c1ccc(Nc2ncc(-c3ccc(C(F)(F)F)cc3)o2)cn1` [Example 34, N-Hydroxy-N-isopropyl-5-((5-(4-(trifluoromethyl)phenyl)oxazol-2-yl)amino)picolinamide], the concentration for half-maximal inhibition (IC50) is above 1000 nM. The same molecule yielded an inhibition at 1 µM (Jurkat cells) of 23%. As to `N/C(=N\O)c1ccc(Nc2ncc(-c3ccc(C(F)(F)F)cc3)o2)nc1` [Example 3, N′-Hydroxy-6-((5-(4-(trifluoromethyl)phenyl)oxazol-2-yl)amino)nicotinimidamide hydrochloride], the IC50 lay in the range of 100 to 1000 nM. Regarding `O=C(NC[C@@H](O)CO)c1ccc(Nc2ncn(-c3ccc(C(F)(F)F)cc3)n2)cn1` [Example 38, (R)—N-(2,3-Dihydroxypropyl)-5-((1-(4-(trifluoromethyl)phenyl)-1H-1,2,4-triazol-3-yl)amino)picolinamide], the IC50 was above 1000 nM. In addition, the inhibition at 1 µM (Jurkat cells) worked out at 30%. On to `O=C(NO)c1ccc(Nc2ncc(-c3ccc(C(F)(F)F)cc3)o2)cn1` [Example 2, N-Hydroxy-5-((5-(4-(trifluoromethyl)phenyl)oxazol-2-yl)amino)picolinamide], for which the IC50 lay within 100 to 1000 nM. The same measure, in the same setting: as for `N/C(=N\O)c1ccc(Nc2ncc(-c3ccc(C(F)(F)F)c(F)c3)o2)cn1` [Example 45, 5-((5-(3-Fluoro-4-(trifluoromethyl)phenyl)oxazol-2-yl)amino)-N′-hydroxypicolinimidamide], the figure is below 100 nM.

`N=C(NO)c1cc(Nc2ncc(-c3ccc(C(F)(F)F)cc3)o2)ncc1O` [Example 50, N,5-Dihydroxy-2-((5-(4-(trifluoromethyl)phenyl)oxazol-2-yl)amino)isonicotinimid-amide]: the IC50 was below 1000 nM. For `N/C(=N/O)c1ccc(Nc2ncc(-c3ccc(C4CC4)cn3)o2)cn1` [Example 62, 5-((5-(5-Cyclopropylpyridin-2-yl)oxazol-2-yl)amino)-N′-hydroxypicolinimidamide], the IC50 is above 1000 nM. The molecule further came in with an inhibition at 1 µM (Jurkat cells) of 42%.

With `N/C(=N\O)c1ccc(Nc2ncc(-c3ccc(C(F)(F)F)cn3)o2)nn1` [Example 61, N′-hydroxy-6-((5-(5-(trifluoromethyl)pyridin-2-yl)oxazol-2-yl)amino)pyridazine-3-carboximidamide], the IC50 is below 100 nM. `N/C(=N\O)c1ncc(Nc2ncc(-c3ccc(C(F)(F)F)cn3)o2)cc1F` [Example 56, 3-Fluoro-N′-hydroxy-5-((5-(5-(trifluoromethyl)pyridin-2-yl)oxazol-2-yl)amino)picolinimidamide]: the “% inhibition of Des1 at 0.1 μM” value (Jurkat cells) is on record as 86%. As for `N/C(=N\O)c1ccc(Nc2ncc(-c3ccc(C(F)(F)F)nc3)o2)cn1` [Example 59, N′-Hydroxy-5-((5-(6-(trifluoromethyl)pyridin-3-yl)oxazol-2-yl)amino)picolinimidamide], the IC50 is below 1000 nM. As to `O=C(NO)c1ncc(Nc2nc(-c3ccc(Cl)cc3)cs2)cn1` [Example 9, 5-([4-(4-Chlorophenyl)-1,3-thiazol-2-yl]amino)-N-hydroxypyrimidine-2-carboxamide], the IC50 was above 10000 nM. Also, where the note is “Jurkat cells, 10 μM”, the “% inhibition of Des1 at 10 μM” value is 26%. `O=C(NC[C@@H](O)CO)c1ccc(Nc2ncc(-c3ccc(C(F)(F)F)c(F)c3)o2)cn1` [Example 44, (R)—N-(2,3-Dihydroxypropyl)-5-((5-(3-fluoro-4-(trifluoromethyl)phenyl)oxazol-2-yl)amino)picolinamide]: the IC50 was in the range of 1 to 10 nM. Consider `N/C(=N\O)c1ccc(Nc2ncc(-c3ccc(OC(F)F)cc3)o2)cn1` [Example 51, 5-((5-(4-(Difluoromethoxy)phenyl)oxazol-2-yl)amino)-N′-hydroxy picolinimidamide], for which the IC50 lay within 100 to 1000 nM. On the same count and under the same terms, as for `N/C(=N\O)c1ncc(Nc2ncc(-c3ccc(C(F)(F)F)cn3)o2)cc1O` [Example 40, N′,3-Dihydroxy-5-((5-(5-(trifluoromethyl)pyridin-2-yl)oxazol-2-yl)amino)picolinimidamide hydrochloride], the figure is 10 to 100 nM; as for `Cc1nc(Nc2ccc(C(=O)NC[C@@H](O)CO)nc2)oc1-c1ccc(C(F)(F)F)cc1` [Compound 96, (R)—N-(2,3-dihydroxypropyl)-5-((4-methyl-5-(4-(trifluoromethyl)phenyl)oxazol-2-yl)amino)picolinamide], below 1000 nM. With `N=C(NO)c1ccc(Nc2nnc(-c3ccc(C(F)(F)F)cc3)o2)cn1` [Example 5, 5-((5-[4-(Trifluoromethyl)phenyl]-1,3,4-oxadiazol-2-yl)amino)-N-hydroxy-pyridine-2-carboximidamide], the IC50 lay in the range of 100 to 1000 nM. Still for that read-out and setting: as for `N/C(=N\O)c1cnc(Nc2nc(-c3ccc(Cl)cc3)no2)cn1` [Example 79, 5-((3-(4-chlorophenyl)-1,2,4-oxadiazol-5-yl)amino)-N′-hydroxypyrazine-2-carboximidamide], the figure is below 1000 nM; as for `O=C(NC[C@@H](O)CO)c1ccc(Nc2ncc(-c3ccc(C(F)(F)F)cn3)o2)cn1` [Compound 95, (R)—N-(2,3-dihydroxypropyl)-5-((5-(5-(trifluoromethyl)pyridin-2-yl)oxazol-2-yl)amino)picolinamide], 10 to 100 nM; as for `Oc1ccc(Nc2nnc(-c3ccc(OC(F)(F)F)cc3)o2)nc1` [Example 67, 6-((5-(4-(Trifluoromethoxy)phenyl)-1,3,4-oxadiazol-2-yl)amino)pyridin-3-ol], below 1000 nM. As to `O=C(NC[C@@H](O)CO)c1ccc(Nc2ncc(-c3ccc(F)cc3)o2)cn1` [Compound 98, (R)—N-(2,3-dihydroxypropyl)-5-((5-(4-fluorophenyl)oxazol-2-yl)amino)picolinamide], the “% inhibition of Des1 at 0.1 μM” value (Jurkat cells) was determined as 70%. Consider `N/C(=N\O)c1ccc(Nc2ncc(-c3ccc(Cl)cc3)o2)cn1` [Compound 100, 5-((5-(4-Chlorophenyl)oxazol-2-yl)amino)-N′-hydroxypicolinimidamide], for which the IC50 is below 1000 nM.
